# Measurements taken from US12371459B2, “Antimicrobial peptide derived from Pseudin-2 peptide and uses thereof” (INDUSTRY-ACADEMIC COOPERATION FOUNDATION, CHOSUN UNIVERSITY, priority 2019, dated 2025).
# Several values for one entry are separate records, joined by “and”; a condition that tells them apart may be missing. Equal values may be shown once. Ends that are not written are not given here.
# Columns and labels:
# [1] = Cytotoxicity in normal cell line (MTT); settings: human, HaCaT keratinocyte cells
# Method: (§1) To determine the cytotoxicity of the peptides produced by the method of Example 1 in normal cell line, cytotoxicity was measured by using human keratinocyte cell line (HaCaT cell line, Dr. N E. Fusenig, Heidelberg, Germany).
# (§2) Specifically, HaCaT cells, which have been cultured in DMEM medium containing 10% FBS (fetal bovine serum), were aliquoted in a microtiter plate to have 2×10^5 cells per well. […] Twenty-four hours later, a reaction solution containing 0.5 mg/ml MTT (thiazolyl blue tetrazolium bromide) dissolved in phosphate buffered saline (PBS) was added in an amount of 100 μl to each well and the reaction was allowed to occur for 4 hours. After that, the supernatant was discarded, and, by dissolving MTT crystals that are formed by adding 200 μl DMSO (dimethyl sulfoxide), the absorbance at 560 nm was measured to determine the cell survival ability.
# [2] = tested on: erythrocytes of a mouse (Balb/c); assay: Erythrocyte hemolytic activity; settings: 1 hour at 37° C.
# Method: To compare the cytotoxicity among the peptides that are produced by the method of Example 1, erythrocyte hemolytic activity of the synthesized peptide was measured.
# After that, the amount of hemoglobin contained in a supernatant collected by centrifuge at 1,000×g was determined by measuring the absorbance at a wavelength of 414 nm. As a control to be used as a reference for cell disruption level, the supernatant collected by a treatment with 1% Triton X-100 (Sigma, USA) and a reaction for 1 hour at 37° C. was used to measure the absorbance. By setting the resulting absorbance value at 100% of the erythrocyte hemolytic activity, hemolysis of each peptide was calculated using the following equation 1. Erythrocyte disrupting ability (%)=(Absorbance A−Absorbance B)/(Absorbance C−Absorbance B)×100 Equation 1 (in the above equation, Absorbance A indicates the absorbance of a reaction solution treated with each peptide, in which the absorbance is measured at a wavelength of 414 nm; Absorbance B indicates the absorbance of a reaction solution treated with PBS, in which the absorbance is measured at a wavelength of 414 nm; and Absorbance C indicates the absorbance of a reaction solution treated with 1% Triton X-100, in which the absorbance is measured at a wavelength of 414 nm).
# [3] = tested on: plasmid DNA (pRSETB); assay: Binding between antimicrobial peptide and DNA (agarose gel electrophoresis); settings: plasmid DNA 300 ng, peptide/DNA ratio 0.25:1 to 4:1, 10 minutes at 37° C.
# Method: Specifically, plasmid DNA (pRSETB, 300 ng) and the peptide were reacted for at different ratio (i.e., peptide/DNA ratio was 0 (DNA only), 0.25:1, 0.5:1, 1:1, 1.5:1, 2:1, 3:1, or 4:1) for 10 minutes at 37° C. After that, electrophoresis was carried out using 1% agarose gel followed by staining with ethidium bromide (EtBr) and UV determination.
# [4] = tested on: human keratinocyte cell line (HaCaT); assay: in vitro; settings: HaCaT keratinocyte cells, 24 h, 100 µM
# Method: as §1, §2
# [5] = tested on: Pseudomonas aeruginosa isolated strain 4891 (tolerance to antibiotics)
# Excerpt: (§3) To compare the antimicrobial activity among the peptides produced by the method of Example 1, the inventors of the present invention measured the minimal growth inhibitory concentration (MIC), which is minimum concentration of the peptide not allowing any […] of bacterial cells.
# (§4) Specifically, the bacterial strains described in the following Table 2 were purchased and cultured to a mid-log phase in a medium that is appropriate for each strain. […] After the addition to a plate, the cells were cultured for 18 hours at 37° C. […] As a control, Pseudin-2 as a mother peptide was used.
# [6] = tested on: Pseudomonas aeruginosa isolated strain 4007 (tolerance to antibiotics)
# Excerpt: as §3, §4
# [7] = tested on: Staphylococcus aureus CCARM 3090 (tolerance to antibiotics)
# Excerpt: as §3, §4
# [8] = tested on: Bacillus subtilis KCTC 1998; settings: KCTC 1998, 18 h
# Excerpt: as §3, §4
# [9] = tested on: Staphylococcus aureus ATCC 25923; settings: ATCC 25923, 18 h
# Excerpt: as §3, §4
# [10] = tested on: Escherichia coli CCARM 1238 (tolerance to antibiotics)
# Excerpt: as §3, §4
# [11] = tested on: Trichosporon beigelii KCTC 7707; settings: KCTC 7707, 18 h
# Excerpt: as §3, §4
# [12] = tested on: Escherichia coli CCARM 1229 (tolerance to antibiotics)
# Excerpt: as §3, §4
# [13] = tested on: Candida albicans KCTC 7270; settings: KCTC 7270, 18 h
# Excerpt: as §3, §4
# [14] = tested on: Escherichia coli ATCC 25922; settings: ATCC 25922, 18 h
# Excerpt: as §3, §4
# [15] = tested on: Staphylococcus aureus CCARM 3518 (tolerance to antibiotics)
# Excerpt: as §3, §4
# [16] = tested on: Listeria monocytogenes KCTC 3710; settings: KCTC 3710, 18 h
# Excerpt: as §3, §4
# [17] = tested on: Pseudomonas aeruginosa ATCC 27853; settings: ATCC 27853, 18 h
# Excerpt: as §3, §4
# [18] = tested on: Salmonella typhimurium KCTC 1926; settings: KCTC 1926, 18 h
# Excerpt: as §3, §4
# [19] = tested on: Escherichia coli; assay: Scanning electron microscopy (SEM), membrane damage; assay type: cell-based; settings: peptide at MIC, 1 hour at 37° C.
# Method: (§5) As a control, cells applied with no peptide were used. After the culture, the cells were collected, and, by using 2.5% glutaraldehyde, the bacterial cells were treated for 18 hour at 4° C. After carrying out washing two times with PBS buffer solution, the fixed cells were dehydrated in stepwise manner by using 100% ethanol and diluted ethanol (50%, 70%, 90% and 100%). After the dehydration followed by drying, the specimen was coated with platinum and determination was made by low vacuum scanning electron microscopy.
# [20] = tested on: Staphylococcus aureus; assay: as above; assay type: cell-based; settings: peptide at MIC, 1 hour at 37° C.
# Method: as §5
# [21] = tested on: Escherichia coli; assay: Flow cytometry, propidium iodide, effect on bacteria membrane; assay type: cell-based; settings: peptide at MIC
# Method: (§6) After that, the supernatant was removed by centrifuge (10,000 rpm) and stained with propidium iodide (PI, concentration of 10 μg/ml) for 30 minutes at 4° C. Thereafter, unbound propidium iodide was removed by centrifuge, and the problem of cell aggregation phenomenon was solved by adding physiological saline (PBS) in an amount of 1 ml.
# [22] = tested on: Staphylococcus aureus; assay: as above; assay type: cell-based; settings: peptide at MIC
# Method: as §6
substance,measurement,setting,value
GLNALKKVFQGIHEAIKLINNHVQ-NH2 [Pseudin-2],"viability at 24 h, 3.13 µM",[1],100%
same,"viability at 24 h, 6.25 µM",[1],100%
same,"viability at 24 h, 12.5 µM",[1],100%
same,"viability at 24 h, 25 µM",[1],100%
same,"viability at 24 h, 50 µM",[1],100%
same,"viability at 24 h, 100 µM",[1],82.1%
same,Erythrocyte disrupting ability,[2]; peptide concentration 3.13 μM,0%
same,Erythrocyte disrupting ability,[2]; peptide concentration 6.25 μM,0%
same,Erythrocyte disrupting ability,[2]; peptide concentration 12.5 μM,0%
same,Erythrocyte disrupting ability,[2]; peptide concentration 25 μM,0%
same,Erythrocyte disrupting ability,[2]; peptide concentration 50 μM,3.2%
same,Erythrocyte disrupting ability,[2]; peptide concentration 100 μM,10% and 10.1%
same,Binding to DNA,[3],did not show any binding to DNA
WLNALKKVWQGIHEAIKLIWNWVQ-NH2 [Pse-Anal4],Cell survival ability,[4],10.8%
same,"viability at 24 h, 3.13 µM",[1]; Cell survival ability,46.1%
same,"viability at 24 h, 6.25 µM",[1]; Cell survival ability,35.1%
same,"viability at 24 h, 12.5 µM",[1]; Cell survival ability,25.4%
same,"viability at 24 h, 25 µM",[1]; Cell survival ability,20.8%
same,"viability at 24 h, 50 µM",[1]; Cell survival ability,15.3%
same,"viability at 24 h, 100 µM",[1]; Cell survival ability,10.1%
same,Minimal inhibitory concentration,[5],64 µM
same,Minimal inhibitory concentration,[6],64 µM
same,Minimal inhibitory concentration,[7],32 µM
same,Minimal inhibitory concentration,[8],32 µM
same,Minimal inhibitory concentration,[9],32 µM
same,Minimal inhibitory concentration,[10],32 µM
same,Minimal inhibitory concentration,[11],32 µM
same,Minimal inhibitory concentration,[12],32 µM
same,Minimal inhibitory concentration,[13],32 µM
same,Minimal inhibitory concentration,[14],16 µM
same,Minimal inhibitory concentration,[15],32 µM
same,Minimal inhibitory concentration,[16],32 µM
same,Minimal inhibitory concentration,[17],16 µM
same,Minimal inhibitory concentration,[18],16 µM
LNALKKVFQGIHEAIKKI-NH2 [Pse-T3],"viability at 24 h, 3.13 µM",[1],100%
same,"viability at 24 h, 6.25 µM",[1],100%
same,"viability at 24 h, 12.5 µM",[1],100%
same,"viability at 24 h, 25 µM",[1],100%
same,"viability at 24 h, 50 µM",[1],100%
same,"viability at 24 h, 100 µM",[1],90.3%
same,Erythrocyte disrupting ability,[2]; peptide concentration 3.13 μM,0%
same,Erythrocyte disrupting ability,[2]; peptide concentration 6.25 μM,0%
same,Erythrocyte disrupting ability,[2]; peptide concentration 12.5 μM,0%
same,Erythrocyte disrupting ability,[2]; peptide concentration 25 μM,0.5%
same,Erythrocyte disrupting ability,[2]; peptide concentration 50 μM,2.2%
same,Erythrocyte disrupting ability,[2]; peptide concentration 100 μM,5.6%
same,Membrane damage by SEM,[19],rougher than the cells treated with Pseudin-2
same,Membrane damage by SEM,[20],higher damage and disruption of cell membrane
same,Binding to DNA,[3],showed binding to DNA
same,Membrane disrupting ability compared with Pseudin-2,[21],higher membrane disrupting ability than Pseudin-2
same,Membrane disrupting ability compared with Pseudin-2,[22],higher membrane disrupting ability than Pseudin-2
